For one compound, ΔTm, binding and G4DC50 results are on record in paper PMC4773817 (2016).

The test system of assay [1] is FPS2.MT (labelled PS2.M) (DNA, G4) GTGGGTAGGGCGGGTTGG
Description: FRET melting. Particulars: not printed (procedure from ref. 50); 3 μM compound, 0.2 μM DNA.

In assay [2] the test system is F10T (DNA, hairpin, hexaethylene glycol (HEG) linker between nucleotides 8 and 9) TATAGCTATATAGCTATAT
Description: FRET melting. Particulars: 3 μM compound, 0.2 μM DNA; no significant variation.

In assay [3] the test system is CCR5-DEL (DNA, single strand) CTCATTTTCCATACATTAAAGATAGTCAT
Description: luminescence enhancement. The settings on record: 1 μM compound, 5 μM DNA, 10 mM Tris, pH 7.4.

For assay [4], the system named is ds26 (DNA, duplex) CAATCGGATCGAATTCGATCCGATTG
Description: FRET melting competition. Particulars: ds26 (2 μM, 10-fold excess) as competitor of 0.2 μM labelled PS2.M; 3 μM compound; no significant change.

The test system of assay [5] is HP1 (DNA, hairpin) GGTACGTGGCTGAGGCCAGTGGGTAGGGCGGGTTGGCCTCAGCCACGTACC
Description: luminescence enhancement. The settings on record: 1.1-fold emission enhancement.

For assay [6], the system named is HP5 (DNA, hairpin) ACGTGGCTGAGGCCAGTGGGTAGGGCGGGTTGGCCTCAGCCACGT
Description: luminescence enhancement. The settings on record: HP5 formed in assay without Nt.BbvCI.

Assay [7] has as its system PS2.M 5'-side loop n=1 (DNA, G4) GTGGGAGGGCGGGTTGG
Description: luminescence enhancement. Particulars: 4.2-fold emission enhancement.

The subject of assay [8] is PS2.M 5'-side loop n=17 (DNA, G4) GTGGGTTTTTTTTATTTTTTTTGGGCGGGTTGG
Description: luminescence enhancement. Particulars: 9.2-fold emission enhancement.

In assay [9] the test system is PS2.M (DNA, G4) GTGGGTAGGGCGGGTTGG
Description: fluorescent intercalator displacement (G4-FID). The settings on record: Tris-HCl buffer; thiazole orange displaced.

For the compound `[Ir+3].[Ir+3].[c-]1ccccc1-c1ccc2ccccc2n1.[c-]1ccccc1-c1ccc2ccccc2n1.[c-]1ccccc1-c1ccc2ccccc2n1.[c-]1ccccc1-c1ccc2ccccc2n1.c1ccc(N(CCCCCN(c2ccccn2)c2ccccn2)c2ccccn2)nc1`, the ΔTm in assay [1] is ~ 12 °C. The binding result was “no” in [2]; “weak” in assay [3]; “weak” in assay [4]; “weak” in assay [5]; “weak” in [6]; “yes” in assay [7]. For the same compound, the binding entry in [8] is “yes”. The compound also came in with a G4DC50 in assay [9] of 7.0 µM.
